{
  "source": "paper PMC7247319",
  "about": "“The mitochondria-targeted peptide SS-31 binds lipid bilayers and modulates surface electrostatics as a key component of its mechanism of action” (The Journal of Biological Chemistry, 2020)",
  "tested_on": "isolated mitochondria",
  "experiment": "31P ssNMR of mitochondrial membrane integrity under calcium stress",
  "set-up": "species or system S. cerevisiae",
  "procedure": "Figure 7. SS peptide effects on Ca^2+-membrane interactions and mitochondrial cation stress. A, profiles of surface potential decay (top) and ion distribution (bottom) based on GCS theory in the presence or absence of SS-31 (see supporting Results H for model description). B, effect of SS peptides on Ca^2+ accumulation at model membrane interfaces. Time course measurements of CG-5N emission were performed in solutions with LUVs (20 mol % TOCL in host POPC background, [lipid]^eff = 100 μM) prebound with SS peptide at the indicated concentration followed by titration of CaCl2 in increments of 1 nmol at 20-s intervals starting at t = 60 s. C and D, effect of SS peptides on mitochondrial Ca^2+ uptake. […] Spectral deconvolution yielded the indicated components (see Fig. S19, A and B), which were used to quantify the area ratios of L2/iso in F (values shown are means ± S.D. (error bars) (n = 3). G, respirometry analysis. Mitochondria (1 mg ml^−1) were treated in the absence or presence of SS-31 (54.4 μM) or CaCl2 (1 mM) as indicated and measured for state 2 respiration (n = 10–12 each).\nFinally, we measured the effects of SS peptides on mitochondrial calcium stress that may occur independently of Ca^2+ uptake into the matrix. […] To corroborate these findings, we measured mitochondrial oxygen consumption rates under similar conditions of SS peptide treatment and calcium stress. […]",
  "note": "Where a SMILES comes first, the peptide text is derived from it. [ ]: non-standard residue; d: D form. Dmt = Cc1cc(O)cc(C)c1C[C@H](N)C(=O)O",
  "data": [
    {"smiles": "Cc1cc(O)cc(C)c1C[C@H](NC(=O)[C@H](N)CCCNC(=N)N)C(=O)N[C@@H](CCCCN)C(=O)N[C@@H](Cc1ccccc1)C(N)=O", "note": "[SS-31, D-Arg-2′6′-dimethyl-Tyr-Lys-Phe-NH2] (H-[dR][Dmt]KF-NH2)", "values": [
      {"measurement": "effect on NMR-detected membrane degradation caused by high calcium load", "setting": "acute treatment 8.5 nmol of peptide/mg of mitochondrial protein (0.6 mM, 70 mg ml^−1), up to 5 mM CaCl2, 4 °C", "value": "reduced NMR-detected membrane degradation"},
      {"measurement": "effect on L2 peak (lamellar phospholipid bilayers), L2/iso area ratio", "setting": "spectral deconvolution, 5 mM CaCl2, n = 3", "value": "significant preservation of the L2 peak"}
    ]}
  ]
}
